Here are results for one substance from US10874733B2 (priority 2016, dated 2020).

Assay type in all cases: physicochemical
The nature of data set [1]: Liposome size homogeneity (PDI, size distribution) by dynamic light scattering. As to conditions: for Liposome PDI: DMPC:DOTAP liposome. The procedure: 1 mL of each of the sample of the lipid dissolution step and 1 mL of a sample obtained by simply mixing the glycolipid of Preparation Example 2-(3) with liposome were added to a cuvette, and a hydrodynamic size and distribution were analyzed using a dynamic light-scattering apparatus (Malvern instrument, ZSP nano) (Table 3, FIGS. 3 and 4). FIG. 3 is a diagram showing a liposome size distribution in a lipid-solubilization step, and FIG. 4 is a diagram showing a liposome size distribution in a step of simply mixing glycolipid with a liposome.

A short description of data set [2]: Liposome size by dynamic light scattering (hydrodynamic size). The conditions noted are these: for Liposome size (d, nm): DMPC:DOTAP liposome. The procedure: 1 mL of each of the sample of the lipid dissolution step and 1 mL of a sample obtained by simply mixing the glycolipid of Preparation Example 2-(3) with liposome were added to a cuvette, and a hydrodynamic size was measured using a dynamic light-scattering apparatus (Malvern instrument, ZSP nano) (Table 2).

Data set [3] can be described thus: Liposome surface charge (zeta potential). As to conditions: for Liposome surface charge (mV): DMPC:DOTAP liposome. Here is the method:
1 mL of each of the sample of the lipid dissolution step and 1 mL of a sample obtained by simply mixing the glycolipid of Preparation Example 2-(3) with a liposome were loaded on a cuvette for measuring a surface charge (zeta potential), and a surface charge was measured using a dynamic light-scattering apparatus (Malvern instrument, ZSP nano) (Table 4).

Where [4] appears, read: lipid dissolution step, glycolipid content 1 mol %.
Where [5] appears, read: lipid dissolution step, glycolipid content 3 mol %.
The mark [6] stands for this setting: lipid dissolution step, glycolipid content 6 mol %.
The mark [7] stands for this setting: step of simple mixing with liposome, glycolipid content 1 mol %.
The mark [8] stands for this setting: step of simple mixing with liposome, glycolipid content 3 mol %.
[9] abbreviates: step of simple mixing with liposome, glycolipid content 6 mol %.

With Monophosphoryl lipid A [MPL], the “Liposome PDI” value in data set [1] (setting [4]) is recorded as 0.353; in data set [1] (setting [5]) it was 0.412; in data set [1] (setting [6]) it was 0.405; in data set [1] (setting [7]), 0.552; in data set [1] (setting [8]), 0.793; in data set [1] (setting [9]), 0.887. Besides, the Liposome size distribution result is “not uniform” in data set [1] (glycolipid incorporated during lipid dissolution (encapsulated liposome), FIG. 3) and “not uniform” in data set [1] (simple mixing of liposome with glycolipid (adsorbed liposome), FIG. 4). The “Dispersibility of the liposome (PDI)” value in data set [1] (over glycolipid contents 6, 3, 1 mol %) is listed as “increased depending on concentration”. In addition, the “Liposome size (d, nm)” value in data set [2] (glycolipid incorporated in lipid dissolution step, glycolipid content 6 mol %) was 355.4 nm; in data set [2] (setting [4]), 367.9 nm; in data set [2] (setting [5]), 309.2 nm; in data set [2] (setting [7]), 694.9 nm; in data set [2] (setting [8]), 1206.1 nm; in data set [2] (setting [9]) it was 1538.7 nm. Further, in data set [2] (glycolipid simply mixed with liposome), the “Change of liposome size on simple mixing with a liposome” value is on record as “tended to increase in size”. Further, the “Liposome surface charge (mV)” value in data set [3] (setting [4]) is 57.0 ± 3.0 mV; in data set [3] (setting [5]) it was 56.2 ± 0.6 mV; in data set [3] (setting [6]), 23.7 ± 0.6 mV; in data set [3] (setting [7]) it was 57.8 ± 1.6 mV; in data set [3] (setting [8]) it was 56.9 ± 3.4 mV; in data set [3] (setting [9]) it was 48.5 ± 1.4 mV. For the same substance, the Surface charge change result in data set [3] (mixed at a high content of 6 mol %) was “decreased sharply”.
